The source of these data is publication PMC4725628 (International Journal of Nanomedicine, 2016).

Data set [1] concerns Caco-2 cells. The data set can be described thus: Uptake into Caco-2 cell monolayers. Type of data set: in vitro ADME, human.
Data set [2] in a line: Bidirectional transport across Caco-2 cell monolayers. Type of data set: in vitro ADME. Particulars: human.
The nature of a further data set: MTT cytotoxicity assay. Particulars: human, Caco-2 cells. It is filed as cell-based, human.
Data set [3] deals with Caco-2 cells. The data set can be described thus: MTT cytotoxicity assay. Type of data set: cell-based, human. Particulars: 10–200 μg/mL.
The conditions of data set [4]: mice, 60 mg/kg, within 1 hour.
In another data set the test system is Caco-2 cell homogenates. The experiment in a line: Degradation in Caco-2 cell homogenates. Type of data set: in vitro ADME, human. Particulars: 37°C, within 120 minutes.
The nature of data set [5]: In vivo pharmacokinetic study in rats. Also on record: species or system Sprague Dawley rats.
For another data set, the system named is Caco-2 cell monolayers. The data set can be described thus: TEER of Caco-2 cell monolayers. Type of data set: cell-based, human. Particulars: Caco-2 monolayers; HM formulations 40 μg/mL, TMC 0.1% w/w.
Setting [6] is: Sprague Dawley, rat, plasma, po, 60 mg/kg.

As for `COc1ccc2c(c1)[nH]c1c(C)nccc12` [HM, Harmine], in the data set with Caco-2 cells [1], the “Effect of endocytosis inhibitor CPZ on uptake” value is listed as “did not affect”, the “Effect of energy inhibitor NaN3 on uptake” value is recorded as “did not affect” and the “Effect of p-gp inhibitor CyA on uptake” value is given as “did not affect”. Also, in data set [2], the Papp at 2 h was greater than 1 ×10⁻⁶ cm/s and the apparent permeability coefficient (Papp) at 2 h, 40 μg/mL is 5.11 ± 0.69 ×10⁻⁶ cm/s. In the data set “MTT cytotoxicity assay”, this molecule had a viability at 24 h, 200 μg/mL greater than 90%. In addition, the “Toxicity to Caco-2 cells” value with Caco-2 cells [3] is listed as “almost no toxicity”. Also, the “Decrease of retention amount in the stomach” value in data set [4] is “about 10%”. The HM degraded entry with Caco-2 cell homogenates was “more than 60%”. For the same molecule, the AUC in data set [5] (Sprague Dawley, rat, plasma, iv, 20 mg/kg) was found to be 12900 ± 1250 ng·h/mL. Moreover, in data set [5] (setting [6]), the AUC was determined as 9760 ± 2340 ng·h/mL and the concentration peaked (Cmax) at 3110 ± 320 ng/mL. The “BA (oral bioavailability)” value in data set [5] (rats, IG 60 mg/kg versus HM IV 20 mg/kg) came out at 25.25±6.05%. In addition, the “Reduction of TEER” value with Caco-2 cell monolayers was “lower than 15%”.
